Reference: PMC5007978, “A chemical with proven clinical safety rescues Down-syndrome-related phenotypes in through DYRK1A inhibition” (Disease Models & Mechanisms, 2016)

Tests used:
[1] = design: method as in Senhwa Biosciences (2014); conditions: phase I clinical trials as cancer therapeutic; ref Senhwa Biosciences (2014); cited from earlier work
[2] = target: T1, DYRK1A (Homo sapiens, UniProt Q13627); assay: DYRK1A-mediated Tau (T212) phosphorylation in transfected 293T cells, western blot; type: cell-based; design: expressed in transfected cells; host or cells: 293T cells
[3] = test system: mnb-overexpressing Drosophila; assay: Eye phenotype in flies overexpressing human Tau with or without mnb (GMR-Gal4); type: in vivo, Drosophila melanogaster; conditions: feeding with 100 nM, GMR>Tau and GMR>mnb+Tau
Description: The expression of human Tau in Drosophila retinal tissue (GMR>Tau) produced a small rough eye phenotype (GMR>Tau in Fig. 6A and B), as described previously ([Jackson et al., 2002]). […] Pan-neuronal mnb overexpression (elav::synGFP>mnb) caused severe neurogenic defects in both the central and peripheral nervous system during embryogenesis [elav::synGFP>mnb (DMSO) in Fig. 6C]. […] Moreover, the viability of adult flies with the neuronal overexpression of mnb was examined. Pan-neuronal overexpression of mnb caused high rates of mortality in adult flies (∼70%, Fig. 6D).
Fig. 6. CX-4945 rescues neurological and phenotypic defects in an mnb-overexpressing Drosophila model. […] (B) The retinal surface areas were measured on multiple samples (n>10) from each genotype, and average eye sizes were presented as normalized percentages of the DMSO-treated GMR-Gal4 control. […]
Drosophila melanogaster were cultured at 25°C on standard cornmeal medium. […] For defining optimal concentration of chemical inhibitors, 50 embryos of each genotype were raised on drug-containing food (0, 1 nM, 10 nM, 100 nM, 1 µM, 10 µM and 25 µM in 0.05% DMSO) and allowed to develop to adulthood (viability assay and wing vein quantification assay). […] Fly eye sizes were measured on multiple samples (n>10) from each genotype using the National Institutes of Health ImageJ software. […]

[4] = test system: calcineurin-NFAT signaling; assay: NFAT-RE promoter luciferase reporter assay (NRE-Luc) in 293T cells; type: cell-based; conditions: IM and PMA (10 nM), 1, 3 and 10 μM
Procedure: Fig. 5. […] Firefly luciferase activities were measured using One-Glo reagents. Luciferase activity in the sample with reporter plasmid alone was set to 1, and the relative luciferase activities were calculated. Means±s.d. were determined from two independent experiments.
Treatment with IM and phorbol 12-myristate 13-acetate (PMA) induced a dramatic increase in luciferase activity (∼20 fold) as a result of the nuclear translocation of NFATc1 and the subsequent transcriptional activation (Fig. 5B). In this situation, the overexpression of DYRK1A suppressed the stimulatory effect of IM and PMA by 75%, resulting in a 4.5-fold increase in luciferase activity compared with that of the control (Fig. 5B).
The firefly luciferase reporter assay was performed using a One-Glo Assay System (Promega) according to the manufacturer's instructions. The transcriptional activity of NFATc1 in 293T cells was measured with a reporter vector (pGL4.30 luc2P/NFAT-RE/Hygro) (Promega) that expresses the firefly luciferase gene under the control of an NFAT-RE promoter. 293T cells were transfected with the DYRK1A-expressing plasmid and reporter plasmid. On the next day, cells were treated with IM (2.5 μM) and phorbol-12-myristate-13-acetate (10 nM) along with the indicated amounts of inhibitors. Cells were further incubated for 8 h and then cell lysates were harvested to measure luciferase activity.

[5] = target: T1, DYRK1A; assay: DYRK1A kinase activity at various ATP and CX-4945 concentrations (Lineweaver-Burk); type: biochemical; design: purchased Life Technologies (Kinase Profiler service); conditions: ATP 50, 75, 100, 150 and 200 μM; Lineweaver-Burk plots
Procedure: Fig. 2. […] Data are mean±s.d. […] Hydrogen bonds are denoted as dotted black lines, and oxygen, nitrogen and chlorine atoms are indicated as red, blue and green sticks, respectively.
Kinase assays were conducted using the Kinase Profiler services offered by Life Technologies, which utilizes a fluorescence-based immunoassay. Detailed protocols can be found at http://www.lifetechnologies.com/kinaseprofiling. […] All experiments were performed twice.

[6] = test system: mnb-overexpressing Drosophila; assay: Wing vein (LV5) defect rescue in mnb-overexpressing flies (MS1096-gal4); type: in vivo, Drosophila melanogaster; conditions: larvae fed for 2 weeks

Compound: O=C(O)c1ccc2c(c1)nc(Nc1cccc(Cl)c1)c1ccncc12 [CX-4945]
- clinical safety [1]: safety has been already proven
- inhibition of Tau phosphorylation at 0.1 μM ([2]; 0.1 μM): Moderate inhibition
- inhibition of Tau phosphorylation at 1 μM ([2]; 1 μM): almost complete inhibition
- eye defects induced by overexpression of Tau alone or with mnb [3]: significantly mitigated
- NFATc1-dependent transcriptional activation (NRE-Luc) suppressed by DYRK1A overexpression [4]: reversed the effect of DYRK1A overexpression in a dose-dependent manner
- mode of DYRK1A inhibition [5]: ATP-competitive manner
- concentration giving apparent rescue of wing (LV5) defect [6]: 10 to 100 nM
